A short description of this series: logP by HPLC on reversed-phase columns (C 18), EEC directive 79/831 Annex V.A8. The conditions noted are these: for log P (**) / log P (***): LC-MS; for log P (**) / log P (*): acidic range; for log P (**): pH 2.7, 0.1% aqueous formic acid and acetonitrile; for log P (***): neutral range, pH 7.8, 0.001 molar aqueous ammonium bicarbonate and acetonitrile; for log P (*): pH 2.3, 0.1% aqueous phosphoric acid and acetonitrile. The class given is physicochemical. The protocol:
Calibration was carried out using unbranched alkan-2-ones (having from 3 to 16 carbon atoms) with known logP values (the logP values were determined by the retention times using linear interpolation between two successive alkanones).

Marks after values point to notes of the source that are not given here.

We go through 31 molecules from US20110053770A1, “SUBSTITUTED AMINOTHIAZOLES AND THEIR USE AS FUNGICIDES” (BAYER CROPSCIENCE AG, priority 2009, published 2011).

With `Cc1ccc(Oc2ccccc2-c2csc(N=C3CCCCN3)n2)c(C)c1` [compound 1, 4-[2-(2,4-dimethylphenoxy)phenyl]-N-[(2E/Z)-piperidin-2-ylidene]-1,3-thiazole-2-amine], the “log P (**)” value turned out to be 2.66 and the “log P (***)” value was 4.9.

In the case of `Clc1ccc(-c2csc(N=C3CCCCN3)n2)cc1` [compound 2, 4-(4-chlorophenyl)-N-[(2E/Z)-piperidin-2-ylidene]-1,3-thiazole-2-amine], the “log P (**)” value is 1.7**.

`Brc1ccc(-c2csc(N=C3CCCCN3)n2)cc1` [compound 3, 4-(4-bromophenyl)-N-[(2E/Z)-piperidin-2-ylidene]-1,3-thiazole-2-amine]: the “log P (**)” value is listed as 1.67**.

Regarding `Clc1ccc(-c2csc(N=C3CCCCN3)n2)c(Cl)c1` [compound 4, 4-(2,4-dichlorophenyl)-N-[(2E/Z)-piperidin-2-ylidene]-1,3-thiazole-2-amine], the “log P (**)” value was 1.8**.

As for `c1ccc(Oc2ccc(-c3csc(N=C4CCCCN4)n3)cc2)cc1` [compound 5, 4-(4-phenoxyphenyl)-N-[(2E/Z)-piperidin-2-ylidene]-1,3-thiazole-2-amine], the “log P (**)” value is given as 2.17 and the “log P (***)” value was found to be 3.97.

For the molecule `FC(F)(F)c1cc(-c2csc(N=C3CCCCN3)n2)cc(C(F)(F)F)c1` [compound 6, 4-[3,5-bis(trifluoromethyl)phenyl]-N-[(2E/Z)-piperidin-2-ylidene]-1,3-thiazole-2-amine], the “log P (**)” value stood at 2.23 and the “log P (***)” value is 4.36.

Take `Fc1ccc(Oc2ccccc2-c2csc(N=C3CCCCN3)n2)c(F)c1` [compound 7, 4-[2-(2,4-difluorophenoxy)phenyl]-N-[(2E/Z)-piperidin-2-ylidene]-1,3-thiazole-2-amine]: the “log P (**)” value is 2.11, the “log P (***)” value was 3.9 and the “log P (*)” value is 2.11.

Turning to `FC(F)(F)c1cccc(-c2csc(N=C3CCCCN3)n2)c1Cl` [compound 8, 4-[2-chloro-3-(trifluoromethyl)phenyl]-N-[(2E/Z)-piperidin-2-yl-idene]-1,3-thiazole-2-amine], the “log P (**)” value was 1.94 and the “log P (***)” value is 3.72.

Consider `Fc1ccc(Oc2ccc(-c3csc(N=C4CCCCN4)n3)cc2)c(F)c1` [compound 9, 4-[4-(2,4-difluorophenoxy)phenyl]-N-[(2E/Z)-piperidin-2-ylidene]-1,3-thiazole-2-amine], for which the “log P (***)” value is reported as 3.95 and the “log P (*)” value came to 2.12.

With `c1ccc(Oc2ccccc2-c2csc(N=C3CCCCN3)n2)cc1` [compound 10, 4-(2-phenoxyphenyl)-N-[(2E/Z)-piperidin-2-ylidene]-1,3-thiazole-2-amine], the “log P (**)” value turned out to be 2.09, the “log P (***)” value is reported as 3.91 and the “log P (*)” value stood at 2.07.

As for `Clc1ccc(Oc2ccccc2-c2csc(N=C3CCCCN3)n2)c(Cl)c1` [compound 11, 4-[2-(2,4-dichlorophenoxy)phenyl]N-[(2E/Z)-piperidin-2-ylidene]-1,3-thiazole-2-amine], the “log P (**)” value was 2.42, the “log P (***)” value is reported as 4.84 and the “log P (*)” value stood at 2.42.

With `CC(C)(C)c1cc(Oc2ccccc2-c2csc(N=C3CCCCN3)n2)ccc1Cl` [compound 12, 4-[2-(3-tert-butyl-4-chlorophenoxy)phenyl]-N-[(2E/Z)-piperidin-2-ylidene]-1,3-thiazole-2-amine], the “log P (**)” value is on record as 2.92, the “log P (***)” value is given as 5.96 and the “log P (*)” value is listed as 2.92.

`FC(F)(F)c1cc(Oc2ccccc2-c2csc(N=C3CCCCN3)n2)ccc1Cl` [compound 14, 4-{2-[4-chloro-3-(trifluoromethyl)phenoxy]phenyl}-N-[(2E/Z)-piperidin-2-ylidene]-1,3-thiazole-2-amine]: the “log P (**)” value turned out to be 2.58, the “log P (***)” value is given as 4.9 and the “log P (*)” value is reported as 2.58.

With `FC(F)(F)Oc1ccccc1-c1csc(N=C2CCCCN2)n1` [compound 15, N-[(2E/Z)-piperidin-2-ylidene]-4-[2-(trifluoromethoxy)phenyl]-1,3-thiazole-2-amine], the “log P (**)” value was 1.77, the “log P (***)” value was 3.54 and the “log P (*)” value came to 1.77.

For the molecule `CC(=O)N1CCCCC1=Nc1nc(-c2ccccc2Oc2ccc(F)cc2F)cs1` [compound 16, 1-[(2E/Z)-2-({4-[2-(2,4-difluorophenoxy)phenyl]-1,3-thiazol-2-yl}imino)piperidin-1-yl]ethanone], the “log P (**)” value turned out to be 4.36, the “log P (***)” value stood at 4.32 and the “log P (*)” value stood at 4.36.

As to `CC(=O)N1CCCCC1=Nc1nc(-c2ccccc2Oc2ccccc2)cs1` [compound 17, 1-[(2E/Z)-2-{[4-(2-phenoxyphenyl)-1,3-thiazol-2-yl]imino}piperidin-1-yl]ethanone], the “log P (**)” value is on record as 4.41, the “log P (***)” value was found to be 4.39 and the “log P (*)” value came out at 4.41.

Regarding `Fc1ccc(-c2csc(N=C3CCCCN3)n2)cc1F` [compound 18, 4-(3,4-difluorophenyl)-N-[(2E/Z)-piperidin-2-ylidene]-1,3-thiazole-2-amine], the “log P (**)” value is recorded as 1.64, the “log P (***)” value amounted to 3.12 and the “log P (*)” value was found to be 1.64.

With `Fc1ccc(F)c(-c2csc(N=C3CCCCN3)n2)c1` [compound 19, 4-(2,5-difluorophenyl)-N-[(2E/Z)-piperidin-2-ylidene]-1,3-thiazole-2-amine], the “log P (**)” value was 1.58, the “log P (***)” value is 3.16 and the “log P (*)” value is on record as 1.58.

On to `Clc1ccccc1-c1csc(N=C2CCCCN2)n1` [compound 20, 4-(2-chlorophenyl)-N-[(2E/Z)-piperidin-2-ylidene]-1,3-thiazole-2-amine], for which the “log P (**)” value is 1.63, the “log P (***)” value was found to be 3.19 and the “log P (*)” value was 1.63.

In the case of `FC(F)(F)c1ccccc1-c1csc(N=C2CCCCN2)n1` [compound 21, N-[(2E/Z)-piperidin-2-ylidene]-4-[2-(trifluoromethyl)phenyl]-1,3-thiazole-2-amine], the “log P (**)” value amounted to 1.76, the “log P (***)” value is on record as 3.25 and the “log P (*)” value is 1.76.

As to `C=CCOc1ccccc1-c1csc(N=C2CCCCN2)n1` [compound 22, N-[(2E/Z)-piperidin-2-ylidene]-4-[2-(prop-2-en-1-yloxy)phenyl]-1,3-thiazole-2-amine], the “log P (**)” value came out at 1.83, the “log P (***)” value is given as 3.45 and the “log P (*)” value is recorded as 1.83.

As for `CCOc1ccccc1-c1csc(N=C2CCCCN2)n1` [compound 23, 4-(2-ethoxyphenyl)-N-[(2E/Z)-piperidin-2-ylidene]-1,3-thiazole-2-amine], the “log P (**)” value stood at 1.77, the “log P (***)” value was 3.35 and the “log P (*)” value is given as 1.77.

As to `Clc1cccc(-c2csc(N=C3CCCCN3)n2)c1Cl` [compound 24, 4-(2,3-dichlorophenyl)-N-[(2E/Z)-piperidin-2-ylidene]-1,3-thiazole-2-amine], the “log P (**)” value turned out to be 1.81, the “log P (***)” value stood at 3.72 and the “log P (*)” value was found to be 1.81.

On to `Fc1cccc(-c2csc(N=C3CCCCN3)n2)c1F` [compound 25, 4-(2,3-difluorophenyl)-N-[(2E/Z)-piperidin-2-ylidene]-1,3-thiazole-2-amine], for which the “log P (**)” value is on record as 1.58, the “log P (***)” value was determined as 3.21 and the “log P (*)” value is 1.58.

Turning to `Fc1c(-c2csc(N=C3CCCCN3)n2)cccc1C(F)(F)F` [compound 26, 4-[2-fluoro-3-(trifluoromethyl)phenyl]-N-[(2E/Z)-piperidin-2-ylidene]-1,3-thiazole-2-amine], the “log P (**)” value came out at 1.84, the “log P (***)” value is on record as 3.78 and the “log P (*)” value was found to be 1.84.

In the case of `COc1ccc(-c2csc(N=C3CCCCN3)n2)cc1OC` [compound 27, 4-(3,4-dimethoxyphenyl)-N-[(2E/Z)-piperidin-2-ylidene]-1,3-thiazole-2-amine], the “log P (**)” value was found to be 1.35, the “log P (***)” value is listed as 2.36 and the “log P (*)” value turned out to be 1.35.

For the molecule `c1cc2c(cc1-c1csc(N=C3CCCCN3)n1)OCO2` [compound 28, 4-(1,3-benzodioxol-5-yl)-N-[(2E/Z)-piperidin-2-ylidene]-1,3-thiazole-2-amine], the “log P (**)” value came out at 1.41, the “log P (***)” value was found to be 2.65 and the “log P (*)” value came out at 1.41.

As for `Fc1cc(F)cc(-c2csc(N=C3CCCCN3)n2)c1` [compound 29, 4-(3,5-difluorophenyl)-N-[(2E/Z)-piperidin-2-ylidene]-1,3-thiazole-2-amine], the “log P (**)” value amounted to 1.57, the “log P (***)” value came to 3.22 and the “log P (*)” value is given as 1.57.

Turning to `Fc1ccc(-c2csc(N=C3CCCCN3)n2)cc1Cl` [compound 30, 4-(3-chloro-4-fluorophenyl)-N-[(2E/Z)-piperidin-2-ylidene]-1,3-thiazole-2-amine], the “log P (**)” value came out at 1.76, the “log P (***)” value was 3.45 and the “log P (*)” value was determined as 1.76.

Turning to `Cc1sc(N=C2CCCCN2)nc1-c1ccc(Cl)cc1` [compound 31, 4-(4-chlorophenyl)-5-methyl-N-[(2E/Z)-piperidin-2-ylidene]-1,3-thiazole-2-amine], the “log P (**)” value was determined as 1.84, the “log P (***)” value worked out at 3.72 and the “log P (*)” value was 1.84.

Take `CC(C)(C)c1ccc(-c2csc(N=C3CCCCN3)n2)cc1` [compound 32, 4-(4-tert-butylphenyl)-N-[(2E/Z)-piperidin-2-ylidene]-1,3-thiazole-2-amine]: the “log P (**)” value was found to be 2.2, the “log P (***)” value is given as 4.35 and the “log P (*)” value turned out to be 2.2.
